The source of these data is patent publication US20240409585A1, “MACROCYCLIC IMMUNOMODULATORS” (priority 2021, published 2024).

Numbered stars: 1 amine (or outer) side, 2 acyl side, 3 side chain; on linkers, the order of the positions; unused ones are H or OH. Bridge positions count the residues as written; N and C are the ends. Square brackets hold non-standard residues; d marks the D form. Peptide text beside a SMILES is read from it. * marks the point of attachment. ξ: configuration not given here. X22 = NC(=O)c1cccc(-c2ccc(C[C@H](N[*:1])C(=O)[*:2])cc2)c1; Phe(4-CONH2) = NC(=O)c1ccc(C[C@H](N)C(=O)O)cc1; Phe(4-COOH) = N[C@@H](Cc1ccc(C(=O)O)cc1)C(=O)O; Bip = N[C@@H](Cc1ccc(-c2ccccc2)cc1)C(=O)O; Phe(3-CN) = N#Cc1cccc(C[C@H](N)C(=O)O)c1; Phe(4-CN) = N#Cc1ccc(C[C@H](N)C(=O)O)cc1; Phe(3-F) = N[C@@H](Cc1cccc(F)c1)C(=O)O; Phe(3-Me) = Cc1cccc(C[C@H](N)C(=O)O)c1; Bta = N[C@@H](Cc1csc2ccccc12)C(=O)O; Val(3-OH) = CC(C)(O)[C@H](N)C(=O)O; mTyr = N[C@@H](Cc1cccc(O)c1)C(=O)O; aIle = CC[C@@H](C)[C@H](N)C(=O)O; 4Pal = N[C@@H](Cc1ccncc1)C(=O)O; Cha = N[C@@H](CC1CCCCC1)C(=O)O; Cit = NC(=O)NCCC[C@H](N)C(=O)O; ξ4Pal = NC(Cc1ccncc1)C(=O)O; Carboxymethyl = O=C(O)C*; NMeA = CN[C@@H](C)C(=O)O; Nle = CCCC[C@H](N)C(=O)O; Pra = C#CC[C@H](N)C(=O)O; Dab = NCC[C@H](N)C(=O)O; Ac3c = NC1(C(=O)O)CC1; ξV = CC(C)C(N)C(=O)O

The target of the assay is T1, PE-labeled human PD-L1-Ig binding to Jurkat cell line over-expressing human PD-1 (Jurkat-PD-1) (Homo sapiens, UniProt Q15116).
T1 construct: expressed in transfected cells; host or cells: Jurkat
T1 sequence (Q15116 25-288): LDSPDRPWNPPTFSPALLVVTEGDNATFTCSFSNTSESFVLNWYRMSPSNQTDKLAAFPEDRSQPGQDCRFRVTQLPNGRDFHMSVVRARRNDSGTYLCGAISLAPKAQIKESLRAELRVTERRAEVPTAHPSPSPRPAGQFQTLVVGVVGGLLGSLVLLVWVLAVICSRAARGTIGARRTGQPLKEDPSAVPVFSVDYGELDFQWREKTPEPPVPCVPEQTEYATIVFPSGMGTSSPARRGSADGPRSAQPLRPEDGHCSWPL
As to the kind of experiment: Jurkat-PD-1 Cell Binding High-Content Screening Assay (CBA): Method 1. As to conditions: Jurkat-hPD-1 cells, PE-labeled PD-L1-Ig 20 nM final; read-out: Jurkat HPDL1 PD1 IC50 (uM) (Method 1).

Usually IC50 stands for the concentration needed to halve the response being measured. Consider `CCNC(=O)[C@H](CCN)NC(=O)[C@@H]1CSCC(=O)N[C@@H]([C@@H](C)O)C(=O)N[C@@H](Cc2cccc(C#N)c2)C(=O)N[C@@H](CC(=O)O)C(=O)N[C@@H](Cc2cccc(C)c2)C(=O)N[C@@H](Cc2cccc(F)c2)C(=O)N[C@@H](Cc2ccc(-c3ccccc3)cc2)C(=O)N[C@@H](Cc2ccc(OCC(=O)O)cc2)C(=O)N(C)[C@@H](C)C(=O)N[C@H](CC(C)C)C(=O)N[C@@H](CCN)C(=O)N[C@@H](CC2CCCCC2)C(=O)N[C@@H](C(C)(C)O)C(=O)N[C@@H](CO)C(=O)N1` [Compound 1842] ({CH2CO}-T[Phe(3-CN)]D[Phe(3-Me)][Phe(3-F)][Bip]Y(Carboxymethyl)[NMeA][dL][Dab][Cha][Val(3-OH)]SC[Dab]-NHEt; thioether N-14), for which the IC50 came out at 0.02 µM. As to `Cc1cccc(C[C@@H]2NC(=O)[C@H](CC(=O)O)NC(=O)[C@H](Cc3ccc(OCC(=O)O)cc3)NC(=O)C(Cc3ccncc3)NC(=O)CSC[C@@H](C(=O)NC3(C(N)=O)CC3)NC(=O)[C@H](CO)NC(=O)[C@H](C(C)C)NC(=O)[C@H](CC3CCCCC3)NC(=O)[C@H](CCN)NC(=O)[C@@H](CC(C)C)NC(=O)[C@H](C)N(C)C(=O)[C@H](Cc3ccc(OCC(=O)O)cc3)NC(=O)[C@H](Cc3ccc(-c4ccccc4)cc3)NC(=O)[C@H](Cc3ccc(OCC(=O)O)cc3)NC2=O)c1` (stereo partly drawn) [Compound 1863] ({CH2CO}-[ξ4Pal]Y(Carboxymethyl)D[Phe(3-Me)]Y(Carboxymethyl)[Bip]Y(Carboxymethyl)[NMeA][dL][Dab][Cha]VSC[Ac3c]-NH2; thioether N-14), the concentration for half-maximal inhibition (IC50) was determined as 0.01 µM. For the compound `Cc1cccc(C[C@@H]2NC(=O)[C@H](CC(=O)O)NC(=O)[C@H](Cc3ccc(OCC(=O)O)cc3)NC(=O)[C@H]([C@@H](C)O)NC(=O)CSC[C@@H](C(N)=O)NC(=O)[C@H](CCC(=O)O)NC(=O)[C@H](C(C)C)NC(=O)[C@H](CC3CCCCC3)NC(=O)[C@H](CC(N)=O)NC(=O)[C@@H](CC(C)C)NC(=O)[C@H](C)N(C)C(=O)[C@H](Cc3ccc(OCC(=O)O)cc3)NC(=O)[C@H](Cc3ccc(-c4ccccc4)cc3)NC(=O)[C@H](Cc3ccc(OCC(=O)O)cc3)NC2=O)c1` [Compound 1679] ({CH2CO}-TY(Carboxymethyl)D[Phe(3-Me)]Y(Carboxymethyl)[Bip]Y(Carboxymethyl)[NMeA][dL]N[Cha]VEC-NH2; thioether N-14), the IC50 is 0.23 µM. Consider `CC(C)C[C@@H]1NC(=O)[C@H](CCCNC(=N)N)NC(=O)[C@H](Cc2csc3ccccc23)NC(=O)[C@H](C)N(C)C(=O)[C@H](CCCNC(=N)N)NC(=O)[C@H](Cc2ccc(-c3ccccc3)cc2)NC(=O)[C@H](C(C)C)NC(=O)[C@H](Cc2c[nH]c3ccccc23)NC(=O)[C@H](CC(=O)O)NC(=O)[C@H](Cc2ccc(O)cc2)NC(=O)[C@H](CCC(N)=O)NC(=O)CSC[C@@H](C(=O)N[C@@H](C)C(N)=O)NC(=O)[C@H](CO)NC(=O)[C@H](C(C)C)NC1=O` [Compound 1057] ({CH2CO}-QYDWV[Bip]R[NMeA][Bta]RLVSCA-NH2; thioether N-14), for which the 50% inhibitory concentration (IC50) is 0.18 µM. The value for `CC(C)C[C@@H]1NC(=O)[C@H](Cc2c[nH]c3ccccc23)NC(=O)[C@H](CC(=O)O)NC(=O)[C@H](Cc2ccc(O)cc2)NC(=O)[C@H](Cc2ccccc2)NC(=O)CSC[C@@H](C(=O)N[C@@H](C)C(N)=O)NC(=O)[C@H](CO)NC(=O)[C@H](C(C)C)NC(=O)[C@H](CC(C)C)NC(=O)[C@H](CCN)NC(=O)[C@@H](C)NC(=O)[C@H](C)N(C)C(=O)[C@H](CCCNC(=N)N)NC(=O)[C@H](Cc2ccc(-c3ccccc3)cc2)NC1=O` [Compound 1751] ({CH2CO}-FYDWL[Bip]R[NMeA][dA][Dab]LVSCA-NH2; thioether N-14) was 0.03 µM. `CCCC[C@@H]1NC(=O)[C@H](CCCNC(=N)N)NC(=O)[C@@H](CC(C)C)NC(=O)[C@H](C)N(C)C(=O)[C@H](C(C)C)NC(=O)[C@H](Cc2ccc(-c3ccccc3)cc2)NC(=O)[C@H](C(C)C)NC(=O)[C@H](Cc2c[nH]c3ccccc23)NC(=O)[C@H](CC(=O)O)NC(=O)[C@H](Cc2ccc(O)cc2)NC(=O)[C@H](Cc2ccc(OCC(=O)O)cc2)NC(=O)CSC[C@@H](C(=O)N[C@@H](C)C(N)=O)NC(=O)[C@H]([C@@H](C)O)NC(=O)[C@H](C(C)C)NC1=O` [Compound 1501] ({CH2CO}-Y(Carboxymethyl)YDWV[Bip]V[NMeA][dL]R[Nle]VTCA-NH2; thioether N-14): the IC50 is 0.08 µM.

For the compound `CC[C@@H](C)[C@@H]1NC(=O)[C@H](Cc2ccc(-c3ccccc3)cc2)NC(=O)[C@H](Cc2cnc[nH]2)NC(=O)[C@H](Cc2c[nH]c3ccccc23)NC(=O)[C@H](CC(=O)O)NC(=O)[C@H](Cc2ccc(C(=O)O)cc2)NC(=O)[C@H](Cc2ccc(OCC(=O)O)cc2)NC(=O)CSC[C@@H](C(=O)N[C@@H](CCCCN)C(N)=O)NC(=O)[C@H](CO)NC(=O)C(C(C)C)NC(=O)[C@H](CC(C)C)NC(=O)[C@H](CC(N)=O)NC(=O)[C@@H](CC(C)C)NC(=O)[C@H](C)N(C)C1=O` (stereo partly drawn) [Compound 2101] ({CH2CO}-Y(Carboxymethyl)[Phe(4-COOH)]DWH[Bip][aIle][NMeA][dL]NL[ξV]SCK-NH2; thioether N-14), the IC50 came to 0.11 µM. Take `CC(C)C[C@@H]1NC(=O)[C@H](CCN)NC(=O)[C@@H](CC(C)C)NC(=O)[C@H](C)N(C)C(=O)[C@H](CCCNC(=N)N)NC(=O)[C@H](Cc2ccc(-c3cccc(C(N)=O)c3)cc2)NC(=O)[C@H](C(C)C)NC(=O)[C@H](Cc2c[nH]c3ccccc23)NC(=O)[C@H](CC(=O)O)NC(=O)[C@H](Cc2ccc(O)cc2)NC(=O)[C@H](CC(N)=O)NC(=O)CSC[C@@H](C(=O)N[C@@H](C)C(N)=O)NC(=O)[C@H]([C@@H](C)O)NC(=O)[C@H](C(C)C)NC1=O` [Compound 1225] ({CH2CO}-NYDWV[X22]R[NMeA][dL][Dab]LVTCA-NH2; thioether N-14): the IC50 worked out at 0.29 µM.

In the case of `CCNC(=O)[C@H](CCN)NC(=O)[C@@H]1CSCC(=O)N[C@@H](Cc2ccc(C(N)=O)cc2)C(=O)N[C@@H](Cc2ccc(OCC(=O)O)cc2)C(=O)N[C@@H](CC(=O)O)C(=O)N[C@@H](Cc2cccc(C)c2)C(=O)N[C@@H](Cc2ccc(OCC(=O)O)cc2)C(=O)N[C@@H](Cc2ccc(-c3ccccc3)cc2)C(=O)N[C@@H](Cc2ccc(OCC(=O)O)cc2)C(=O)N(C)[C@@H](C)C(=O)N[C@H](CC(C)C)C(=O)N[C@@H](CCN)C(=O)N[C@@H](CC2CCCCC2)C(=O)N[C@@H](C(C)C)C(=O)N[C@@H]([C@@H](C)O)C(=O)N1` [Compound 1857] ({CH2CO}-[Phe(4-CONH2)]Y(Carboxymethyl)D[Phe(3-Me)]Y(Carboxymethyl)[Bip]Y(Carboxymethyl)[NMeA][dL][Dab][Cha]VTC[Dab]-NHEt; thioether N-14), the IC50 is 0.01 µM. Take `CCCC[C@@H]1NC(=O)[C@H](CCCNC(=N)N)NC(=O)[C@@H](CC(C)C)NC(=O)[C@H](C)N(C)C(=O)[C@H](CCCNC(=N)N)NC(=O)[C@H](Cc2ccc(-c3ccccc3)cc2)NC(=O)[C@H](C(C)C)NC(=O)[C@H](Cc2c[nH]c3ccccc23)NC(=O)[C@H](CC(=O)O)NC(=O)[C@H](Cc2ccc(O)cc2)NC(=O)[C@H](CC(N)=O)NC(=O)CSC[C@@H](C(=O)N[C@@H](C)C(N)=O)NC(=O)[C@H]([C@@H](C)O)NC(=O)[C@H](C(C)C)NC1=O` [Compound 1282] ({CH2CO}-NYDWV[Bip]R[NMeA][dL]R[Nle]VTCA-NH2; thioether N-14): the IC50 came out at 0.13 µM. Consider `CC(C)C[C@@H]1NC(=O)[C@H](CCN)NC(=O)[C@H](Cc2csc3ccccc23)NC(=O)[C@H](C)N(C)C(=O)[C@H](CCC(=O)O)NC(=O)[C@H](Cc2ccc(-c3ccccc3)cc2)NC(=O)[C@H](C(C)C)NC(=O)[C@H](Cc2c[nH]c3ccccc23)NC(=O)[C@H](CC(=O)O)NC(=O)[C@H](Cc2ccc(O)cc2)NC(=O)[C@H](Cc2ccccc2)NC(=O)CSC[C@@H](C(=O)N[C@@H](C)C(N)=O)NC(=O)[C@H]([C@@H](C)O)NC(=O)[C@H](C(C)C)NC1=O` [Compound 1143] ({CH2CO}-FYDWV[Bip]E[NMeA][Bta][Dab]LVTCA-NH2; thioether N-14), for which the IC50 worked out at 0.24 µM. As for `C#CC[C@H](NC(=O)CNC(=O)[C@@H]1CSCC(=O)N[C@@H](Cc2ccc(OCC(=O)O)cc2)C(=O)N[C@@H](Cc2ccc(C(=O)O)cc2)C(=O)N[C@@H](CC(=O)O)C(=O)N[C@@H](Cc2c[nH]c3ccccc23)C(=O)N[C@@H](CC(C)C)C(=O)N[C@@H](Cc2ccc(-c3ccccc3)cc2)C(=O)N[C@@H](C(C)C)C(=O)N(C)[C@@H](C)C(=O)N[C@H](CC(C)C)C(=O)N[C@@H](CCN)C(=O)N[C@@H](CC2CCCCC2)C(=O)N[C@@H](C(C)(C)O)C(=O)N[C@@H](CO)C(=O)N1)C(=O)O` [Compound 1935] ({CH2CO}-Y(Carboxymethyl)[Phe(4-COOH)]DWL[Bip]V[NMeA][dL][Dab][Cha][Val(3-OH)]SCG[Pra]-OH; thioether N-14), the IC50 came out at 0.04 µM. Consider `CC(C)C[C@@H]1NC(=O)[C@H](CCN)NC(=O)[C@@H](CC(C)C)NC(=O)[C@H](C)N(C)C(=O)[C@H](CCCNC(N)=O)NC(=O)[C@H](Cc2ccc(-c3ccccc3)cc2)NC(=O)[C@H](C(C)C)NC(=O)[C@H](Cc2c[nH]c3ccccc23)NC(=O)[C@H](CC(=O)O)NC(=O)[C@H](Cc2ccc(C#N)cc2)NC(=O)[C@H](Cc2ccncc2)NC(=O)CSC[C@@H](C(=O)N[C@@H](C)C(N)=O)NC(=O)[C@H]([C@@H](C)O)NC(=O)[C@H](C(C)C)NC1=O` [Compound 1402] ({CH2CO}-[4Pal][Phe(4-CN)]DWV[Bip][Cit][NMeA][dL][Dab]LVTCA-NH2; thioether N-14), for which the IC50 was 0.02 µM. As to `CC(C)C[C@@H]1NC(=O)[C@H](Cc2c[nH]c3ccccc23)NC(=O)[C@H](CC(=O)O)NC(=O)[C@H](Cc2cccc(O)c2)NC(=O)[C@H](Cc2ccccc2)NC(=O)CSC[C@@H](C(=O)N[C@@H](C)C(N)=O)NC(=O)[C@H](CO)NC(=O)[C@H](C(C)C)NC(=O)[C@H](CC(C)C)NC(=O)[C@H](CC(N)=O)NC(=O)[C@@H](C)NC(=O)[C@H](C)N(C)C(=O)[C@H](C(C)C)NC(=O)[C@H](Cc2ccc(-c3ccccc3)cc2)NC1=O` [Compound 1765] ({CH2CO}-F[mTyr]DWL[Bip]V[NMeA][dA]NLVSCA-NH2; thioether N-14), the IC50 stood at 0.04 µM.
